This note sets out measurements from the NIST ThermoML archive (doi:10.1021/je0256481).

The data set is described as follows: activity coefficient (dimensionless); of the first substance listed, at infinite dilution; xn = mol fraction of the nth substance listed. The following applies: Liquid, x1 = 0.

Each structure is given as a SMILES string. ± gives the expanded uncertainty stated by the source.

As for `C=CCCCCC` [1-heptene] + CCCCCCn1cc[n+](C)c1.F[P-](F)(F)(F)(F)F, the activity coefficient amounted to 15.3 ± 1.4 (298.15 K), 13.8 ± 1.3 (313.15 K) and 12.4 ± 1.1 (323.15 K).

As for `C#CCCCCC` [1-heptyne] + CCCCCCn1cc[n+](C)c1.F[P-](F)(F)(F)(F)F, the activity coefficient by setting is: (313.15 K) 4.03 ± 0.37; (323.15 K) 4.07 ± 0.37.

With `C#CCCCC` [1-hexyne] + CCCCCCn1cc[n+](C)c1.F[P-](F)(F)(F)(F)F, the activity coefficient stood at 2.78 ± 0.25 (313.15 K) and 2.82 ± 0.26 (323.15 K).

With `C#CCCCCCC` [1-octyne] + CCCCCCn1cc[n+](C)c1.F[P-](F)(F)(F)(F)F, the activity coefficient (313.15 K) was determined as 5.86 ± 0.54 and the activity coefficient (323.15 K) is 5.81 ± 0.53.

With `c1ccccc1` [benzene] + CCCCCCn1cc[n+](C)c1.F[P-](F)(F)(F)(F)F, the activity coefficient (298.15 K) was 1.03 ± 0.05, the activity coefficient (313.15 K) came to 1.04 ± 0.06 and the activity coefficient (323.15 K) amounted to 1.07 ± 0.06.

As for `C1CCCCCC1` [cycloheptane] + CCCCCCn1cc[n+](C)c1.F[P-](F)(F)(F)(F)F, the activity coefficient reads like this: (313.15 K) 14.2 ± 1.3; (323.15 K) 11.8 ± 1.1.

Consider `C1CCCCC1` [cyclohexane] + CCCCCCn1cc[n+](C)c1.F[P-](F)(F)(F)(F)F, for which the activity coefficient came out at 12.7 ± 1.2 (298.15 K), 10.6 ± 0.97 (313.15 K) and 9.38 ± 0.86 (323.15 K).

For `C1CCCCCCC1` [cyclooctane] + CCCCCCn1cc[n+](C)c1.F[P-](F)(F)(F)(F)F, the activity coefficient by setting is: (313.15 K) 18.7 ± 1.7; (323.15 K) 12.2 ± 1.1.

Take `C1CCCC1` [cyclopentane] + CCCCCCn1cc[n+](C)c1.F[P-](F)(F)(F)(F)F: the activity coefficient turned out to be 8.53 ± 0.78 (298.15 K), 7.21 ± 0.66 (313.15 K) and 6.08 ± 0.56 (323.15 K).

Turning to `CCCCCCC` [heptane] + CCCCCCn1cc[n+](C)c1.F[P-](F)(F)(F)(F)F, the activity coefficient came out at 30.6 ± 2.8 (298.15 K), 25.7 ± 2.4 (313.15 K) and 22.2 ± 2 (323.15 K).

On to `C=CCCCC` [hex-1-ene] + CCCCCCn1cc[n+](C)c1.F[P-](F)(F)(F)(F)F, for which the activity coefficient is 10.4 ± 0.96 (298.15 K), 9.09 ± 0.83 (313.15 K) and 7.88 ± 0.72 (323.15 K).

`CCCCCC` [hexane] + CCCCCCn1cc[n+](C)c1.F[P-](F)(F)(F)(F)F: the activity coefficient runs as follows: (298.15 K) 22.5 ± 5.4; (313.15 K) 19.2 ± 4.4; (323.15 K) 15 ± 3.

Regarding `CO` [methanol] + CCCCCCn1cc[n+](C)c1.F[P-](F)(F)(F)(F)F, the activity coefficient runs as follows: (298.15 K) 1.94 ± 0.17; (313.15 K) 1.6 ± 0.13; (323.15 K) 1.44 ± 0.11.

`C=CCCCCCC` [oct-1-ene] + CCCCCCn1cc[n+](C)c1.F[P-](F)(F)(F)(F)F: the activity coefficient stood at 21.9 ± 2 (298.15 K), 19.5 ± 1.8 (313.15 K) and 18 ± 1.7 (323.15 K).

Turning to `CCCCCCCC` [octane] + CCCCCCn1cc[n+](C)c1.F[P-](F)(F)(F)(F)F, the activity coefficient reads like this: (298.15 K) 44.7 ± 4.2; (313.15 K) 37.1 ± 3.5; (323.15 K) 32 ± 3.

Consider `CCCCC` [pentane] + CCCCCCn1cc[n+](C)c1.F[P-](F)(F)(F)(F)F, for which the activity coefficient reads like this: (298.15 K) 13.7 ± 2.7; (313.15 K) 12.2 ± 2.4; (323.15 K) 8.48 ± 1.4.
